From patent US9155714B2, “Compositions comprising an aromatic alcohol and a TRPV-1 antagonist, and uses thereof” (JOHNSON & JOHNSON CONSUMER INC., priority 2013, dated 2015)
“And” between values parts separate entries of the source, which are not always exact repeats. Equal values may be shown once. Each block holds one compound with its values, some of them ahead of it.

Experiments:
Format in all cases: cell-based
[1] = molecular target: T1, human vanilloid receptor-1 (TRPV-1) (Homo sapiens, UniProt Q8NER1); test: Calcium Flux Test, inhibition of phenoxyethanol-induced calcium flux; settings: for reducing phenoxyethanol-induced calcium flux (result in words): TRPV-1-expressing HEK293 cells
T1 construct: host or cells: HEK293
T1 sequence (Q8NER1 whole entry): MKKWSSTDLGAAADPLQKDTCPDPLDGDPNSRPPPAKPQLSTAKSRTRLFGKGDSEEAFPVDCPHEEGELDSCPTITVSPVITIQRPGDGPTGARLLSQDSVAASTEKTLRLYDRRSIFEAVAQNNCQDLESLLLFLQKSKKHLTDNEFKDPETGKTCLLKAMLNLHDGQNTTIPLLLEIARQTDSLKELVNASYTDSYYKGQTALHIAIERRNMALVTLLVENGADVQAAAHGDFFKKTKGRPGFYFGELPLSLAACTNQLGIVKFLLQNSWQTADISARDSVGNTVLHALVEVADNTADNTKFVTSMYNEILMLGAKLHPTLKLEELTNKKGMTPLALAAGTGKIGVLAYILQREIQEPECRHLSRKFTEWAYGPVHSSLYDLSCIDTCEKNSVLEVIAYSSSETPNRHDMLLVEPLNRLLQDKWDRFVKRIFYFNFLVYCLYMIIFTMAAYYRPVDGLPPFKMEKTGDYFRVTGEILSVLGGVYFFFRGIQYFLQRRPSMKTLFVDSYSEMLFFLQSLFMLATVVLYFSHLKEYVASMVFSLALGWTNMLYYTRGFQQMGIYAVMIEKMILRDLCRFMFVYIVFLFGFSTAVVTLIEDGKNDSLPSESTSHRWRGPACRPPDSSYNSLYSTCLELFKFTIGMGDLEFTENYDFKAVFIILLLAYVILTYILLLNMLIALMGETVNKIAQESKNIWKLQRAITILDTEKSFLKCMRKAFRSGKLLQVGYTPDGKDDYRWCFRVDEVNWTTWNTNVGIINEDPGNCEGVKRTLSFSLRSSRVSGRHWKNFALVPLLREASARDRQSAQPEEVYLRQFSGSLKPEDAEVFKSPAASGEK
Procedure: (§1) The Calcium Flux Test is performed in the following manner: Recombinant HEK293 cells expressing human vanilloid receptor-1 (TRPV-1; accession number AF196175, EMD Millipore, Billerica, Mass.) are grown in D-MEM/F-12 media (Life Technologies, Grand Island, N.Y.) supplemented with 10% fetal bovine serum, 1% non essential amino acids and 400 μg/mL Geneticin (Gibco, Life Technologies). Cells are plated at a concentration of 15,000 cells per well on poly-D-lysine-coated 384 well plates and incubated overnight at 5% CO2 and 37° C. After incubation, culture media is removed from the wells and replaced with 50 μL per well of Fluo-8 No Wash dye solution (#36315, AAT Bioquest, Sunnyvale, Calif.). The Fluo-8 dye solution is prepared by mixing 20 uL of Fluo-8 NW with 30 mL of 0.33× Pluronic® F127 Plus (BASF of Ludwigshafen, Germany) in assay buffer (1×HBSS+2% of HEPES). Fluo-8 dye is incubated for 30 minutes at room temperature. Intracellular calcium (Ca^2+) flux is monitored upon exposure to aromatic alcohol in DMSO vehicle by measuring fluorescence intensity at Ex/Em 490/525 on a Functional Drug Screening System (FDSS; Hamamatsu, […]). Measurements are taken every second for a period of 4 minutes. […] Statistical differences are obtained using One Way ANOVA with Tukey Post-hoc test; statistical significance is defined as P≦0.05.
(§2) The Maximum RFU obtained with a given concentration of aromatic alcohol is compared with the Maximum RFU obtained using the same concentration of aromatic alcohol but pretreated with the TRPV-1 antagonist for 5 minutes after dye incubation. Percent inhibition achieved with the TRPV-1 antagonist is calculated as: 100*((Maximum RFU of aromatic alcohol−Maximum RFU of aromatic alcohol pretreated with TRPV-1 antagonist)/Maximum RFU of aromatic alcohol).
(§3) Capsazepine and AMG9810 were tested for activity as TRPV-1 antagonists using the Calcium Flux Test using two different concentrations of phenoxyethanol in DMSO. They were also tested using the Calcium Flux Test in which phenoxyethanol was replaced with capsaicin. […]

[2] = molecular target: T1, human vanilloid receptor-1 (TRPV-1); test: Calcium Flux Test, phenoxyethanol replaced with capsaicin (capsaicin-induced calcium flux); settings: capsaicin 300 nM
Procedure: as §1, §2, §3

[3] = molecular target: T1, human vanilloid receptor-1 (TRPV-1); test: Calcium Flux Test, activity as TRPV-1 agonist
Procedure: as §1
(§4) Phenoxyethanol was tested at a series of concentrations in DMSO for activity as a TRPV-1 agonist according to the Calcium Flux Test described above. Capsaicin was used as a positive control.
(§5) Maximum RFU values for treatment with phenoxyethanol or capsaisin were compared to the Maximum RFU for a DMSO vehicle alone. Concentrations of phenoxyethanol and capsaicin are reported in milimolar (mM) and nanomolar (nM), respectively.
(§6) Benzyl alcohol and sodium bicarbonate were tested using the Calcium Flux Test.
(§7) Benzyl alcohol and phenethyl alcohol were tested at a series of concentrations in DMSO for activity as a TRPV-1 agonist as described in Example 1. Concentrations of benzyl alcohol and phenethyl alcohol are reported in units of % w/v.

[4] = molecular target: T1, human vanilloid receptor-1 (TRPV-1); test: Calcium Flux Test, activity as TRPV-1 agonist; design: key: **: Statistically significant; n/s: Not statistically significant
Procedure: as §1, §4, §5, §6, §7

[5] = compound 25 μM, phenoxyethanol 2 mM
[6] = compound 25 μM, phenoxyethanol 3 mM
[7] = compound 100 μM, phenoxyethanol 2 mM
[8] = compound 100 μM, phenoxyethanol 3 mM

- Maximum RFU (mean ± SD) [1, 5]: 171.65 ± 83.27 RFU
- Maximum RFU (mean ± SD) [1, 6]: 309.90 ± 40.00 RFU
- Maximum RFU (mean ± SD) [1, 7]: 160.66 ± 30.14 RFU
- Maximum RFU (mean ± SD) [1, 8]: 225.19 ± 38.09 RFU
- Maximum RFU (mean ± SD) ([2]; compound 25 μM): 950.97 ± 49.52 RFU
- Maximum RFU (mean ± SD) ([2]; compound 100 μM): 963.83 ± 65.21 RFU
Structure (SMILES): C[C@]12CCC(=O)C=C1CC[C@@H]1[C@@H]2[C@@H](O)C[C@@]2(C)[C@H]1CC[C@]2(O)C(=O)CO [Hydrocortisone, hydrocortisone]
- reducing phenoxyethanol-induced calcium flux (result in words) [1]: none of hydrocortisone, diphenhydramine or lidocaine were effective

Structure (SMILES): CCN(CC)CC(=O)Nc1c(C)cccc1C [Lidocaine, lidocaine]
- reducing phenoxyethanol-induced calcium flux (result in words) [1]: none of hydrocortisone, diphenhydramine or lidocaine were effective
- Maximum RFU (mean ± SD) [1, 5]: 124.96 ± 22.24 RFU
- Maximum RFU (mean ± SD) [1, 6]: 197.45 ± 41.14 RFU
- Maximum RFU (mean ± SD) [1, 7]: 116.25 ± 25.92 RFU
- Maximum RFU (mean ± SD) [1, 8]: 205.92 ± 16.97 RFU

- intracellular calcium flux in TRPV-1-transfected HEK cells (result in words) [3]: dose dependent increases
Structure (SMILES): OCCc1ccccc1 [Phenethyl Alcohol, phenethyl alcohol]
- Maximum RFU ([3]; phenethyl alcohol 0.000002 % w/v alone (no antagonist)): 12.8 ± 1.35 RFU and 6.43 RFU and 12.28 ± 3.52 RFU
- Maximum RFU ([3]; phenethyl alcohol 0.013 % w/v alone (no antagonist)): 185.92 ± 28.6 RFU and 123.10 RFU and 200.02 ± 6.15 RFU
- Maximum RFU ([3]; phenethyl alcohol 0.04 % w/v alone (no antagonist)): 548.5 ± 37.22 RFU and 441.18 RFU and 470.23 ± 7.11 RFU
- Maximum RFU ([3]; phenethyl alcohol 0.12 % w/v alone (no antagonist)): 755.2 ± 12.89 RFU and 605.31 RFU and 580.44 ± 3.06 RFU

Structure (SMILES): OCCOc1ccccc1 [Phenoxyethanol, 2-phenoxy-1-ethanol]
- increase in Maximum RFU values compared to the vehicle alone [3]: thirty to forty-fold
- intracellular calcium flux in TRPV-1-transfected HEK cells (result in words) [3]: dose dependent increases
- Maximum RFU (mean ± SD) ([3]; phenoxyethanol 0.5 mM alone): 96.96 ± 61.20 RFU
- Maximum RFU (mean ± SD) ([3]; phenoxyethanol 0.75 mM alone): 124.81 ± 37.58 RFU
- Maximum RFU (mean ± SD) ([3]; phenoxyethanol 1 mM alone): 200.28 ± 76.93 RFU
- Maximum RFU (mean ± SD) ([3]; phenoxyethanol 1.5 mM alone): 304.41 ± 70.10 RFU
- Maximum RFU (mean ± SD) ([3]; phenoxyethanol 2.5 mM alone): 363.73 ± 44.11 RFU
- Maximum RFU (mean ± SD) ([3]; phenoxyethanol 3 mM alone): 401.68 ± 26.58 RFU and 441.76 ± 36.68 RFU and 224.26 ± 42.60 RFU and 257.93 RFU
- Maximum RFU (mean ± SD) ([3]; phenoxyethanol 3.5 mM alone): 404.21 ± 42.32 RFU
- Maximum RFU (mean ± SD) ([3]; phenoxyethanol 4 mM alone): 453.25 ± 34.18 RFU
- P < 0.05 Compared to Vehicle ([4]; phenoxyethanol 0.5 mM): n/s
- P < 0.05 Compared to Vehicle ([4]; phenoxyethanol 0.75 mM): n/s
- P < 0.05 Compared to Vehicle ([4]; phenoxyethanol 1 mM): **
- P < 0.05 Compared to Vehicle ([4]; phenoxyethanol 1.5 mM): **
- P < 0.05 Compared to Vehicle ([4]; phenoxyethanol 2 mM): **
- P < 0.05 Compared to Vehicle ([4]; phenoxyethanol 2.5 mM): **
- P < 0.05 Compared to Vehicle ([4]; phenoxyethanol 3 mM): **
- P < 0.05 Compared to Vehicle ([4]; phenoxyethanol 3.5 mM): **
- P < 0.05 Compared to Vehicle ([4]; phenoxyethanol 4 mM): **
